Reference: US20090203725A1, “Androgen Receptor Modulator Compounds and Methods” (priority 2005, published 2009)
pKi: −log10 of the molar value.

biological target: T1, hAR (Homo sapiens, UniProt P10275); assay: IR Binding Assay: displacement of 3H-DHT in COS-1 cells transfected with pRShAR; conditions: not given
T1 construct: expressed in transfected cells; host or cells: COS-1 cells transiently transfected with pRShAR, pRS-β-Gal and pGEM
T1 sequence (P10275 1-920): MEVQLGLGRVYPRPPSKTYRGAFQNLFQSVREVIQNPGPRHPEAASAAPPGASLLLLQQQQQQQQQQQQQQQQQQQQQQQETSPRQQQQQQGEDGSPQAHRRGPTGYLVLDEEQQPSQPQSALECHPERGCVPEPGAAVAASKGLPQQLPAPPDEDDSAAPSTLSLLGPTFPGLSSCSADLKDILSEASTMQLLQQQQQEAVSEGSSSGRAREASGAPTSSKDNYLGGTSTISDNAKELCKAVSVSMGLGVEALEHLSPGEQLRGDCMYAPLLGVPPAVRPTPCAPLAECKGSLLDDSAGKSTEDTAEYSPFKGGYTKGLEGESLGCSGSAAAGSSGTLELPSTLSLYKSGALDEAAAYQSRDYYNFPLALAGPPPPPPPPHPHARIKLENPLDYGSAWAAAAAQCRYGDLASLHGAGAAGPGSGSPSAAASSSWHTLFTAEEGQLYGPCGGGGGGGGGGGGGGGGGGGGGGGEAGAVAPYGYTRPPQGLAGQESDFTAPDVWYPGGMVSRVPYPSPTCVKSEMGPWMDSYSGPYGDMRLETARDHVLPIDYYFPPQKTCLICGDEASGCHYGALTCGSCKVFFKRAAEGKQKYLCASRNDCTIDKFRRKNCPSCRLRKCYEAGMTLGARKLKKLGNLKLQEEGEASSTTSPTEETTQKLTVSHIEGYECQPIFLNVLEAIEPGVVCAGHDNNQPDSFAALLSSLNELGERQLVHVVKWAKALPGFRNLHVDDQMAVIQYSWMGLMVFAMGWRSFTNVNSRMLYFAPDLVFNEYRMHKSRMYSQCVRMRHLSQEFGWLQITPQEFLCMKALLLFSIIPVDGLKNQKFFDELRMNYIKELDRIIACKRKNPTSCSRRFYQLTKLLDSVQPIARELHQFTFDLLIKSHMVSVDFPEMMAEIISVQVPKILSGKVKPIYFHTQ
Description: COS-1 cells in 96-well microtiter plates containing DMEM-10% FBS were transfected using standard techniques with plasmids pRShAR (2 ng/well), pRS-β-Gal (50 ng/well) and pGEM (48 ng/well). Six hours after transfection, media was removed, the cells were washed with PBS and fresh media was added. Twenty-four hours later, the media was changed to serum free DMEM and the cells were incubated for twenty-four hours.
Three replicates were used for each sample.
After three hours at 37° C., aliquots of media from each well of both test plates and control plates were removed to estimate the amount of free ^3H-DHT. The remaining media was removed, the cells were washed three times with PBS, and cells were lysed with a Triton X-100-based buffer. The lysates were assayed for amount of bound ^3H-DHT and β-Gal activity using a scintillation counter and spectrophotometer, respectively.
Determination of Kd for ^3H-DHT. Total binding was defined as binding of ^3H-DHT in the absence of 100 molar excess of unlabeled DHT in the control plate. […] binding was defined as binding of ^3H-DHT in the presence of 100 molar excess of unlabeled DHT in the control plate. Specific binding was defined as the difference between the total binding and the nonspecific binding, normalized by the β-Gal rate. Specific binding was used in Scatchard analysis to determine the Kd for ^3H-DHT.
Test Compounds. To determine binding affinity (Ki) for test compounds, the data from each concentration of test compound was calculated as a percentage of the signal for the sample with no test compound. […] The Ki values were determined by the Cheng-Prusoff equation, where: […]

Row | SMILES | pKi
1 | COc1cccc2c1-c1ccc3[nH]c(=O)cc(C)c3c1C(C)O2 (racemic) [Compound 107, (±)-10-Methoxy-4,5-dimethyl-1H,5H-6-oxa-1-aza-chrysen-2-one] | < 7.30
2 | COc1cccc2c1-c1ccc3[nH]c(=O)cc(C(F)(F)F)c3c1C(O)O2 (racemic) [Compound 114, (±)-5-Hydroxy-10-methoxy-4-trifluoromethyl-1H,5H-6-oxa-1-aza-chrysen-2-one] | < 7.30
3 | COc1c(OC(=O)C(C)(C)C)ccc2oc(=O)c3c(ccc4[nH]c(=O)cc(C)c43)c12 [Compound 102, 2,2-Dimethylpropionic acid 10-methoxy-4-methyl-2,5-dioxo-2,5-dihydro-1H-6-oxa-1-aza-chrysen-9-yl ester] | 7.30 to 8.00
4 | COc1cccc2c1-c1ccc3[nH]c(=O)cc(C(F)(F)F)c3c1CO2 [Compound 113] | 7.30 to 8.00
5 | O=c1cc(C(F)(F)F)c2c3c(ccc2[nH]1)-c1c(O)cccc1OC3 [Compound 115, 10-Hydroxy-4-trifluoromethyl-1H,5H-6-oxa-1-aza-chrysen-2-one] | > 8.00
6 | CC(C)(C)C(=O)Oc1cccc2c1-c1ccc3[nH]c(=O)cc(C(F)(F)F)c3c1CO2 [Compound 116, 2,2-Dimethyl-propionic acid 2-oxo-4-trifluoromethyl-2,5-dihydro-1H-6-oxa-1-aza-chrysen-10-yl ester] | > 8.00
7 | Cc1cc(=O)[nH]c2ccc3c4c(CO)cccc4oc(=O)c3c12 [Compound 124, 10-Hydroxymethyl-4-methyl-1H-6-oxa-1-aza-chrysene-2,5-dione] | 7.30 to 8.00
8 | COc1cccc2c(=O)oc3c(ccc4[nH]c(=O)cc(C(F)(F)F)c43)c12 [Compound 126, 10-Methoxy-4-trifluoromethyl-1H-5-oxa-1-azachrysene-2,6-dione] | 7.30 to 8.00
9 | COc1cccc2c1-c1ccc3[nH]c(=O)cc(C(F)(F)F)c3c1OC2 [Compound 127, 10-Methoxy-4-trifluoromethyl-1,6-dihydro-5-oxa-1-azachrysen-2-one] | 7.30 to 8.00

same assay, conditions: 1 nM 3H-DHT, transfected COS-1 cells, 3 hours at 37° C., Cheng-Prusoff; read-out: Binding to hAR (Ki value ranges)

Row | SMILES | pKi
10 | COc1cccc2c1-c1ccc3[nH]c(=O)cc(C)c3c1C(O)O2 (racemic) [Compound 105, (±)-5-Hydroxy-10-methoxy-4-methyl-1H,5H-6-oxa-1-aza-chrysen-2-one] | < 7.30
11 | COc1cccc2c1-c1ccc3[nH]c(=O)cc(C)c3c1C(C)(OC)O2 (racemic) [Compound 108, (±)-5,10-Dimethoxy-4,5-dimethyl-1H,5H-6-oxa-1-azachrysen-2-one] | < 7.30
12 | COc1c(O)ccc2c1-c1ccc3[nH]c(=O)cc(C)c3c1C(OC)O2 (racemic) [Compound 118, (±)-9-Hydroxy-5,10-dimethoxy-4-methyl-1H,5H-6-oxa-1-aza-chrysen-2-one] | < 7.30
13 | COc1ccc2oc(=O)c3c(ccc4[nH]c(=O)cc(C)c43)c2c1 [Compound 103, 9-Methoxy-4-methyl-1H-6-oxa-1-aza-chrysene-2,5-dione] | < 7.30
14 | Cc1cc(=O)[nH]c2ccc3c4c(OC(=O)C(C)(C)C)cccc4oc(=O)c3c12 [Compound 104, 2,2-Dimethylpropionic acid 4-methyl-2,5-dioxo-2,5-dihydro-1H-6-oxa-1-aza-chrysen-10-yl ester] | > 8.00
15 | COc1cccc2c1-c1ccc3[nH]c(=O)cc(C)c3c1CO2 [Compound 109, 10-Methoxy-4-methyl-1H,5H-6-oxa-1-azachrysen-2-one] | < 7.30
16 | COC(=O)c1cccc2oc(=O)c3c(ccc4[nH]c(=O)cc(C)c43)c12 [Compound 111, 4-Methyl-2,5-dioxo-2,5-dihydro-1H-6-oxa-1-aza-chrysene-10-carboxylic acid methyl ester] | < 7.30
17 | COc1c(O)ccc2oc(=O)c3c(ccc4[nH]c(=O)cc(C)c43)c12 [Compound 117, 9-Hydroxy-10-methoxy-4-methyl-1H-6-oxa-1-aza-chrysene-2,5-dione] | > 8.00
18 | COc1c(O)ccc2c1-c1ccc3[nH]c(=O)cc(C)c3c1CO2 [Compound 119, 9-Hydroxy-10-methoxy-4-methyl-1H,5H-6-oxa-1-aza-chrysen-2-one] | > 8.00
19 | COc1c(OC(C)C)ccc2oc(=O)c3c(ccc4[nH]c(=O)cc(C)c43)c12 [Compound 120, 9-Isopropoxy-10-methoxy-4-methyl-1H-6-oxa-1-aza-chrysene-2,5-dione] | 7.30 to 8.00
20 | CCOc1ccc2oc(=O)c3c(ccc4[nH]c(=O)cc(C)c43)c2c1OC [Compound 121, 9-Ethoxy-10-methoxy-4-methyl-1H-6-oxa-1-aza-chrysene-2,5-dione] | < 7.30
21 | CCOc1ccc2oc(=O)c3c(ccc4c3c(C)cc(=O)n4CC)c2c1OC [Compound 122, 9-Ethoxy-1-ethyl-10-methoxy-4-methyl-1H-6-oxa-1-aza-chrysene-2,5-dione] | < 7.30
22 | COc1cccc2c1-c1ccc3[nH]c(=O)cc(C)c3c1C(=O)OC2 [Compound 123, 4-Methoxy-10-methyl-7,13-dihydro-12-oxa-7-aza-benzo[3,4]cyclohepta[1,2-α]-naphthalene-8,11-dione] | < 7.30
23 | Cc1c([N+](=O)[O-])ccc2c1c(=O)oc1cccc(O)c12 [Compound 129, 1-Hydroxy-7-methyl-8-nitrobenzo[c]coumarin] | > 8.00
24 | COc1cccc2oc(=O)c3c(C)c([N+](=O)[O-])ccc3c12 [Compound 130, 1-Methoxy-7-methyl-8-nitrobenzo[c]coumarin] | < 7.30
